# Source: patent US9732060B2, “Aminotriazine derivative and pharmaceutical composition comprising the same” (Shionogi & Co., Ltd., priority 2013, dated 2017)
# Like-named read-outs stand apart in the source and are kept apart here.
# How the values were obtained:
# [1] = biological target: T1, human P2X3 receptor (Homo sapiens (Human), UniProt P56373); experiment: Evaluation of human P2X3 receptor inhibitory activity (FLIPR Ca fluorescence, ATP-evoked); type: cell-based; settings: C6BU-1 cells stably expressing human P2X3 receptor
# T1 sequence (P56373 whole entry): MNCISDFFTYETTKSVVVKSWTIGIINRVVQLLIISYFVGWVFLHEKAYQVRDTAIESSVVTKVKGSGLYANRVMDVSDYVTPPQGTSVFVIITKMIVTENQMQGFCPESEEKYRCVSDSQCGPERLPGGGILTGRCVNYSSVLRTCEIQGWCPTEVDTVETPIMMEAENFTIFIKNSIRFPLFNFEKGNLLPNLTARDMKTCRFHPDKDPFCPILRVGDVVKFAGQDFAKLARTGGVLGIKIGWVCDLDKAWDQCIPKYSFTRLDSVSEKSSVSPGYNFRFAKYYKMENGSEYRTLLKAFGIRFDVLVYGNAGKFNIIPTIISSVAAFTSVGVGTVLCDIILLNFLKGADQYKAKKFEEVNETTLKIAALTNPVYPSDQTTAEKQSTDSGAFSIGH
# Experimental: Stably expressing cell line (C6BU-1 cell transfected with human P2X3 receptor gene (GenBank accession number Y07683) was used. The cells were seeded in a 384-well PDL-coated microtiter plate at a concentration of 3000 cells/well and cultured in the medium (8.3% fetal bovine serum, 8.3% horse serum, and 1% antibiotic and antifungal in DMEM) for one day at 37° C. under 5% carbon dioxide atmosphere. The medium was replaced with 4 μM Fluo-3-AM solution (20 mM HEPES, 137 mM NaCl, 2.7 mM KCl, 0.9 mM MgCl2, 5.0 mM CaCl2, 5.6 mM D-glucose, 2.5 mM probenecid, 0.5% BSA, and 0.04% Pluronic P-127, pH 7.5) and incubated at 37° C. under 5% dioxide carbon atmosphere for one hour. The plate was washed with washing buffer (20 mM HEPES, 137 mM NaCl, 2.7 mM KCl, 0.9 mM MgCl2, 5.0 mM CaCl2, 5.6 mM D-glucose, 2.5 mM probenecid, pH 7.5), and each well was added with 20 μL of the washing buffer. The plate was placed in High-Throughput Screening System FLIPR 384 (Molecular Device Co.). Measurement of fluorescence intensity by […] was started, and 20 μL of DMSO solutions containing different concentrations of the test compound as prepared by dilution with dilution buffer (20 mM HEPES, 137 mM NaCl, 2.7 mM KCl, 0.9 mM MgCl2, 5.0 mM CaCl2, 5.6 mM D-glucose, 2.5 mM probenecid, 0.1% Pluronic F-127, pH 7.5) were dispensed to each well through the built-in automatic dispenser. Five minutes after, 150 nM ATP solution (25 μL) prepared by dilution with the dilution buffer was dispensed through the built-in automatic dispenser, and the measurement of fluorescence intensity was continued for 4 min. For each well, the specific maximum fluorescence intensity was calculated as the ratio of the maximum fluorescence intensity after addition of the ATP solution to the fluorescence intensity at the starting of the measurement. […] The specific maximum fluorescence intensify and IC50 were calculated using Spotfire (Science & Technology Systems. Inc.)
# [2] = biological target: T1, human P2X3 receptor; experiment: Evaluation of human P2X3 receptor inhibitory activity in the presence of human serum albumin (HSA); type: cell-based; settings: in the presence of 1% HSA (final concentration)
# Experimental: Stably expressing cell line (C6BU-1 cell transfected with human P2X3 receptor gene (GenBank accession number Y07683; was used. The cells were seeded in a 96-well microtiter plate at a concentration of 8000 cells/well and cultured in the medium (7.0% fetal bovine serum, 7.0% horse serum, 1% antibiotic and antifungal, and 2.0% glutamine in DMEM) for one day at 37° C. under 5% carbon dioxide atmosphere. The medium was replaced with 4 μM Fluo-3-AM solution (20 mM HEPES, 137 mM NaCl, 5.37 mM KCl, 0.9 mM MgCl2, 1.26 mM CaCl2, 5.6 mM D-glucose, 2.5 mM probenecid, 0.5% BSA, and 0.04% Pluronic F-127, pH 7.5) and incubated at 37° C. under 5% dioxide carbon atmosphere for one hour. The plate was washed with washing buffer (20 mM HEPES, 137 mM NaCl, 5.27 mM KCl, 0.9 mM MgCl2, 1.26 mM CaCl2, 5.6 mM D-glucose, 2.5 mM probenecid, pH 7.5), and each well was added with 40 μL of this buffer. The plate was placed in High-Throughput Screening System FDSS 3000 (Hamamatsu Photonics K.K.). Measurement of fluorescence intensity by FDSS 3000 was started, and 40 μL of DMSO solutions containing 1% HSA (final concentrations) different concentrations of the test compound as prepared by dilution with dilution buffer (20 mM HEPES, 137 mM NaCl, 5.27 mM KCl, 0.9 mM MgCl2, 1.26 mM CaCl2, 5.6 mM D-glucose, 2.5 mM probenecid, 0.1% Pluronic F-127, pH 7.5) were dispensed to each well through the built-in automatic dispenser. Five minutes after, 50 nM ATP solution (50 μL) prepared by dilution with the dilution buffer was dispensed through the built-in automatic dispenser, and the measurement of fluorescence intensity was continued for 4 min. For each well, the specific maximum fluorescence intensity was calculated as the ratio of the maximum fluorescence intensity after addition of the ATP solution to the fluorescence intensity at the starting of the measurement. […] FDSS software (Hamamatsu Photonics K.K.) was used for calculation of the specific maximum fluorescence intensity. IC50 was calculated using Microsoft Excel (Microsoft Corporation) and XLfit (idbs Ltd.)
# [3] = Solubility test (1% DMSO, artificial intestinal juice pH 6.8); type: physicochemical; settings: artificial intestinal juice pH 6.8 with 1% DMSO, 25 °C, fassgf or other biorelevant, kinetic from dmso stock, artificial intestinal juice pH 6.8, 25 degrees Celsius, read-out: Solubulity
# [4] = Pharmacokinetic test (BA, CLtot); type: in vivo; settings: rat, plasma, SD rats
# Experimental: • (1) Animals: SD rats were used • (2) Breeding conditions: SD rats were allowed to freely take solid food and sterilized tap water. • (3) Dose and grouping: orally or intravenously administered at a predetermined dose; grouping was as follows (Dose depends on the compound)
# Oral administration: 1 mg/kg (n=2)
# The total body clearance (CLtot) was calculated by dividing the dose by the AUC of the intravenous administration group.
compound,measurement,setting,value
Cc1ccc(Cn2c(=O)n(C[C@H](C)C(=O)O)c(=O)[nH]/c2=N\c2ccc(Oc3ccc(F)cn3)cc2)cc1 [Compound I-040],IC50,[1],0.006 µM
same,IC50,[2],0.018 µM
same,solubility at 18 h,[3],> 50 µM
same,clearance,[4]; intravenous administration 0.5 mg/kg,1.72 L/h/kg
same,AUC,"[4]; intravenous administration 0.5 mg/kg, read-out: AUC (iv)",0.291 µg·h/mL
same,AUC,"[4]; oral administration 1 mg/kg, read-out: AUC (po)",0.41 µg·h/mL
